Results as given in the NIST ThermoML archive (doi:10.1021/je200682t).
± gives the expanded uncertainty stated by the source.

Assay: relative permittivity at zero frequency (dimensionless)
Details: 101.33 kPa, Liquid, Parallel plate capacitor

O=C1CCC1 [cyclobutanone]
Details | relative permittivity at zero frequency
243.15 K | 17.96 ± 0.02
245.65 K | 17.81 ± 0.02
248.15 K | 17.66 ± 0.02
250.65 K | 17.51 ± 0.02
253.15 K | 17.37 ± 0.02
255.65 K | 17.22 ± 0.02
258.15 K | 17.07 ± 0.02
260.65 K | 16.93 ± 0.02
263.15 K | 16.79 ± 0.02
265.65 K | 16.65 ± 0.02
268.15 K | 16.51 ± 0.02
270.65 K | 16.37 ± 0.02
273.15 K | 16.24 ± 0.02
275.65 K | 16.11 ± 0.02
278.15 K | 15.98 ± 0.02
280.65 K | 15.85 ± 0.02
283.15 K | 15.72 ± 0.02
285.65 K | 15.58 ± 0.02
288.15 K | 15.46 ± 0.02
290.65 K | 15.33 ± 0.02
293.15 K | 15.2 ± 0.02
295.65 K | 15.08 ± 0.02
298.15 K | 14.96 ± 0.02
300.65 K | 14.84 ± 0.02
303.15 K | 14.72 ± 0.02
305.65 K | 14.6 ± 0.02
308.15 K | 14.48 ± 0.02
310.65 K | 14.37 ± 0.02
313.15 K | 14.25 ± 0.02

O=C1CCCCCC1 [cycloheptanone]
Details | relative permittivity at zero frequency
245.65 K | 15.35 ± 0.02
248.15 K | 15.22 ± 0.02
250.65 K | 15.09 ± 0.02
253.15 K | 14.97 ± 0.02
255.65 K | 14.85 ± 0.02
258.15 K | 14.72 ± 0.02
260.65 K | 14.57 ± 0.02
263.15 K | 14.47 ± 0.02
265.65 K | 14.36 ± 0.02
268.15 K | 14.25 ± 0.02
270.65 K | 14.14 ± 0.02
273.15 K | 14.03 ± 0.02
275.65 K | 13.91 ± 0.02
278.15 K | 13.8 ± 0.02
280.65 K | 13.69 ± 0.02
283.15 K | 13.58 ± 0.02
285.65 K | 13.46 ± 0.02
288.15 K | 13.35 ± 0.02
290.65 K | 13.25 ± 0.02
293.15 K | 13.14 ± 0.02
295.65 K | 13.03 ± 0.02
298.15 K | 12.92 ± 0.02
300.65 K | 12.82 ± 0.02
303.15 K | 12.72 ± 0.02
305.65 K | 12.62 ± 0.02
308.15 K | 12.51 ± 0.02
310.65 K | 12.41 ± 0.02
313.15 K | 12.32 ± 0.02

O=C1CCCCC1 [cyclohexanone]
Details | relative permittivity at zero frequency
243.15 K | 19.75 ± 0.02
245.65 K | 19.54 ± 0.02
248.15 K | 19.34 ± 0.02
250.65 K | 19.13 ± 0.02
253.15 K | 18.93 ± 0.02
255.65 K | 18.73 ± 0.02
258.15 K | 18.54 ± 0.02
260.65 K | 18.34 ± 0.02
263.15 K | 18.15 ± 0.02
265.65 K | 17.96 ± 0.02
268.15 K | 17.78 ± 0.02
270.65 K | 17.6 ± 0.02
273.15 K | 17.42 ± 0.02
275.65 K | 17.24 ± 0.02
278.15 K | 17.07 ± 0.02
280.65 K | 16.9 ± 0.02
283.15 K | 16.73 ± 0.02
285.65 K | 16.56 ± 0.02
288.15 K | 16.4 ± 0.02
290.65 K | 16.24 ± 0.02
293.15 K | 16.08 ± 0.02
295.65 K | 15.92 ± 0.02
298.15 K | 15.77 ± 0.02
300.65 K | 15.62 ± 0.02
303.15 K | 15.46 ± 0.02
305.65 K | 15.32 ± 0.02
308.15 K | 15.17 ± 0.02
310.65 K | 15.03 ± 0.02
313.15 K | 14.89 ± 0.02

O=C1CCCCCCC1 [cyclooctanone]
Details | relative permittivity at zero frequency
298.15 K | 14.54 ± 0.04
303.15 K | 14.22 ± 0.04
305.65 K | 14.05 ± 0.04
308.15 K | 13.89 ± 0.04
310.65 K | 13.74 ± 0.04
313.15 K | 13.57 ± 0.04
315.65 K | 13.42 ± 0.04
318.15 K | 13.27 ± 0.04
320.65 K | 13.14 ± 0.04
323.15 K | 12.99 ± 0.04
325.65 K | 12.85 ± 0.04
328.15 K | 12.71 ± 0.04
330.65 K | 12.58 ± 0.04
333.15 K | 12.44 ± 0.04
335.65 K | 12.3 ± 0.04
338.15 K | 12.17 ± 0.04
340.65 K | 12.04 ± 0.04
343.15 K | 11.9 ± 0.04

O=C1CCCC1 [cyclopentanone]
Details | relative permittivity at zero frequency
243.15 K | 15.66 ± 0.04
245.65 K | 15.56 ± 0.04
248.15 K | 15.46 ± 0.04
250.65 K | 15.36 ± 0.04
253.15 K | 15.26 ± 0.04
255.65 K | 15.15 ± 0.04
258.15 K | 15.05 ± 0.04
260.65 K | 14.95 ± 0.04
263.15 K | 14.85 ± 0.04
265.65 K | 14.75 ± 0.04
268.15 K | 14.65 ± 0.04
270.65 K | 14.55 ± 0.04
273.15 K | 14.45 ± 0.04
275.65 K | 14.35 ± 0.04
278.15 K | 14.25 ± 0.04
280.65 K | 14.15 ± 0.04
283.15 K | 14.06 ± 0.04
285.65 K | 13.96 ± 0.04
288.15 K | 13.86 ± 0.04
290.65 K | 13.77 ± 0.04
293.15 K | 13.67 ± 0.04
295.65 K | 13.58 ± 0.04
298.15 K | 13.49 ± 0.04
300.65 K | 13.39 ± 0.04
303.15 K | 13.3 ± 0.04
305.65 K | 13.22 ± 0.04
308.15 K | 13.13 ± 0.04
310.65 K | 13.04 ± 0.04
313.15 K | 12.95 ± 0.04
